From patent publication US7863271B2, “2-aminobenzoxazole carboxamides as 5HT3 modulators” (Albany Molecular Research, Inc., priority 2006, dated 2011)
Structures can show the parent of a compound that is named as a salt.

molecular target: T1, 5-HT3 (Homo sapiens, UniProt P46098); experiment: Compound affinity for the human 5-HT3 receptor (Assay B), SPA radioligand binding with [9-methyl-3H]BRL-43694; parameters: purchased Perkin Elmer; settings: Assay B (method B unless otherwise annotated); read-out: 5-HT3 Ki
T1 sequence (P46098 24-478): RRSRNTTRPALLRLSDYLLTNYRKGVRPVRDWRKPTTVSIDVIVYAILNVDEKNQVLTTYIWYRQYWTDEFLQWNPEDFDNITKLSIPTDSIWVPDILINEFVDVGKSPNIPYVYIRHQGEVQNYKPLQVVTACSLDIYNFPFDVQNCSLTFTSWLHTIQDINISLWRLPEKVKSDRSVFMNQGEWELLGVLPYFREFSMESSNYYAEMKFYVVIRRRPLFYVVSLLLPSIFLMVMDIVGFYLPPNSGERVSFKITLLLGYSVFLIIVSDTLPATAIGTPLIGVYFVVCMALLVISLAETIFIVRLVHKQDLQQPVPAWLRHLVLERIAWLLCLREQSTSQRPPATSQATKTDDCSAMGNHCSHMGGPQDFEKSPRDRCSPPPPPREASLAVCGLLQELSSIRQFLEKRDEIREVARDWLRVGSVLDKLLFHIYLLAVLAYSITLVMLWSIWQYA
In short: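 Ten competitor concentrations in duplicate; specific binding (total minus nonspecific) fitted for IC50, converted to Ki by Cheng-Prusoff.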

Going from `CN1[C@@H]2CCC[C@H]1C[C@@H](NC(=O)c1cccc3oc(N4CCNC(=O)C4)nc13)C2` [Example 86, Endo-N-(9-Methyl-9-azabicyclo[3.3.1]nonan-3-yl)-2-(3-oxopiperazine-1-yl)benzoxazole-4-carboxamide Hydrochloride] to `C[C@H]1C(=O)NCCN1c1nc2c(C(=O)NC3CC4CCCC(C3)N4C)cccc2o1` (stereo partly drawn) [Example 98, Endo-N-(9-Methyl-9-azabicyclo[3.3.1]nonan-3-yl)-2-((S)-2-methyl-3-oxopiperazine-1-yl)benzoxazole-4-carboxamide Hydrochloride], the Ki falls from 66.2 nM to 14.6 nM (4.5-fold).

Going from `CC[C@H]1COC[C@H](C)N1c1nc2c(C(=O)NC3CC4CCCC(C3)N4C)cccc2o1` (stereo partly drawn) [Example 87, Endo-N-(9-Methyl-9-azabicyclo[3.3.1]nonan-3-yl)-2-((3 S,5S)-3-ethyl-5-methylmorpholino)benzoxazole-4-carboxamide Hydrochloride] to `C[C@H]1COC[C@H](C)N1c1nc2c(C(=O)NC3CC4CCC(C3)N4C)cccc2o1` (stereo partly drawn) [Example 101, N-(8-Methyl-8-azabicyclo[3.2.1]octan-3-yl)-2-(3S,5S)-3,5-dimethylmorpholinobenzoxazole-4-carboxamide Hydrochloride], the Ki rises from 1 nM to 2.6 nM (2.6-fold). The first binds more tightly here.

First: C[C@H]1COC[C@H](C)N1c1nc2c(C(=O)NC3CC4COCC(C3)N4C)cccc2o1 (stereo partly drawn) [Example 88, Endo-N-(9-Methyl-3-oxa-9-azabicyclo[3.3.1]nonan-7-yl) 2-((3 S,5S)-3,5-dimethylmorpholino)benzoxazole-4-carboxamide Hydrochloride]
Second: CC(=O)N1C[C@H](C)N(c2nc3c(C(=O)NC4CC5CCCC(C4)N5C)cccc3o2)[C@@H](C)C1 (stereo partly drawn) [Example 110, Endo-N-(9-Methyl-9-azabicyclo[3.3.1]nonan-3-yl)-2-((2S,6S)-4-acetyl-2,6-dimethylpiperazin-1-yl)benzoxazole-4-carboxamide Hydrochloride]
The Ki of the first is 9-fold higher: 19.9 nM for the first, 2.2 nM for the second.

First: COC1CCN(c2nc3c(C(=O)N[C@H]4C[C@H]5CCC[C@@H](C4)N5C)cccc3o2)CC1 [Example 89, Endo-N-(9-Methyl-9-azabicyclo[3.3.1]nonan-3-yl)-2-(4-methoxypiperidin-1-yl)benzoxazole-4-carboxamide Hydrochloride]
Second: CN1[C@@H]2CCC[C@H]1C[C@@H](NC(=O)c1cccc3oc(N4CCC(=O)CC4)nc13)C2 [Example 92, Endo-N-(9-methyl-9-azabicyclo[3.3.1]nonan-3-yl)-2-(4-oxopiperidin-1-yl)benzoxazole-4-carboxamide Hydrochloride]
The Ki of the first is 1.7-fold higher: 36.9 nM for the first, 21.2 nM for the second. The second binds more tightly here.

First: C[C@H]1COC[C@H](C)N1c1nc2c(C(=O)N[C@@H]3CN4CCC3CC4)cccc2o1 [Example 90, (S)—N-(quinuclidine-8-yl)-2-((3S,5S)-3,5-Dimethylmorpholino)benzoxazole-4-carboxamide Hydrochloride]
Second: C[C@H]1CNC[C@H](C)N1c1nc2c(C(=O)NC3CN4CCC3CC4)cccc2o1 (some centres unmarked) [Example 99, Hydrochloride]
The Ki of the first is 1.9-fold lower: 6.8 nM for the first, 13.2 nM for the second.

`CN1[C@@H]2CCC[C@H]1C[C@@H](NC(=O)c1cccc3oc(N4CCC5(CC4)OCCO5)nc13)C2` [Example 91, Endo-N-(9-Methyl-9-azabicyclo[3.3.1]nonan-3-yl)-2-(1,4-dioxa-8-azaspiro[4.5]decan-8-yl)benzoxazole-4-carboxamide Hydrochloride] and `CN1[C@@H]2CCC[C@H]1C[C@@H](NC(=O)c1cccc3oc(N4CCNCC45CCCC5)nc13)C2` [Example 100, Endo-N-(9-Methyl-9-azabicyclo[3.3.1]nonan-3-yl)-2-(6,9-diazaspiro[4.5]decan-6-yl)benzoxazole-4-carboxamide Hydrochloride] are within 1.5-fold of each other in Ki: 14.5 nM for the first, 11.4 nM for the second.

Going from `CN1C2CCCC1CC(NC(=O)c1cccc3oc(N4CCOC[C@@H]4CO)nc13)C2` (stereo partly drawn) [Example 94, Endo-N-(9-Methyl-9-azabicyclo[3.3.1]nonan-3-yl)-2-((S)-3-(hydroxymethyl)morpholino)benzoxazole-4-carboxamide Hydrochloride] to `CC1CN(c2nc3c(C(=O)N[C@H]4C[C@H]5CCC[C@@H](C4)N5C)cccc3o2)CCN1` (stereo partly drawn) [Example 95, Endo-N-(9-Methyl-9-azabicyclo[3.3.1]nonan-3-yl)-2-(3-methylpiperazin-1-yl)benzoxazole-4-carboxamide Hydrochloride], the Ki rises from 27.5 nM to 52.4 nM (1.9-fold). The first binds more tightly here.

First: CN1C2CCCC1CC(NC(=O)c1cccc3oc(N4CCNC[C@@H]4C(C)(C)C)nc13)C2 (stereo partly drawn) [Example 96, Endo-N-(9-Methyl-9-azabicyclo[3.3.1]nonan-3-yl)-2-((S)-2-tert-butylpiperazin-1-yl)benzoxazole-4-carboxamide Hydrochloride]
Second: CN1[C@@H]2CCC[C@H]1C[C@@H](NC(=O)c1cccc3oc(N4CCNCC4(C)C)nc13)C2 [Example 102, Endo-N-(9-Methyl-9-azabicyclo[3.3.1]nonan-3-yl)-2-(2,2-dimethylpiperazin-1-yl)benzoxazole-4-carboxamide Hydrochloride]
The Ki of the first is 2.1-fold lower: 7.5 nM for the first, 15.8 nM for the second. The first binds more tightly here.

First: C[C@H]1CN(Cc2ccccc2)C(=O)[C@H](C)N1c1nc2c(C(=O)NC3CC4CCCC(C3)N4C)cccc2o1 (stereo partly drawn) [Example 97, Endo-N-(9-Methyl-9-azabicyclo[3.3.1]nonan-3-yl)-2-((2S,6S)-4-benzyl-2,6-dimethyl-3-oxopiperazine-1-yl)benzoxazole-4-carboxamide Hydrochloride]
Second: C[C@H]1CN(C)C(=O)[C@H](C)N1c1nc2c(C(=O)NC3CC4CCCC(C3)N4C)cccc2o1 (stereo partly drawn) [Example 120, Endo-N-(9-methyl-9-azabicyclo[3.3.1]nonan-3-yl)-2-((2S,6S)-2,4,6-trimethyl-3-oxopiperazine-1-yl)benzoxazole-4-carboxamide Hydrochloride]
The Ki of the first is 4.7-fold lower: 0.4 nM for the first, 1.9 nM for the second.

`CCNc1nc2c(C(=O)NC3CN4CCC3CC4)cccc2o1` [Example 104, (S)—N-(Quinulidin-8-yl)-2-ethylaminobenzoxazole-4-carboxamide Hydrochloride] and `CNc1nc2c(C(=O)NC3CN4CCC3CC4)cccc2o1` [Example 113, (S)—N-(quinulidin-8-yl)-2-methylaminobenzoxazole-4-carboxamide Hydrochloride] are within 1.5-fold of each other in Ki: 13.5 nM for the first, 14.5 nM for the second.

First: CCNc1nc2c(C(=O)N[C@H]3C[C@H]4CCC[C@@H](C3)N4C)cccc2o1 [Example 105, Hydrochloride]
Second: C[C@H]1CN(CC2CC2)C[C@H](C)N1c1nc2c(C(=O)NC3CC4CCCC(C3)N4C)cccc2o1 (stereo partly drawn) [Example 119, Endo-N-(9-methyl-9-azabicyclo[3.3.1]nonan-3-yl)-2-((2S,6S)-4-(cyclopropylmethyl)-2,6-dimethylpiperazin-1-yl)benzoxazole-4-carboxamide Hydrochloride]
The Ki of the first is 2-fold lower: 3.3 nM for the first, 6.6 nM for the second. The first binds more tightly here.

Compared with `C[C@H]1COCCN1c1nc2c(C(=O)NC3CC4CCCC(C3)N4C)cc(Cl)cc2o1` (stereo partly drawn) [Example 106, Endo-6-Chloro-N-(9-methyl-9-azabicyclo[3.3.1]nonan-3-yl)-2-((S)-3-methylmorpholino)benzoxazole-4-carboxamide Hydrochloride], `C[C@H]1CNC[C@H](C)N1c1nc2c(C(=O)NC3CC4CCCC(C3)N4C)cc(Cl)cc2o1` (stereo partly drawn) [Example 114, Endo-N-(9-methyl-9-azabicyclo[3.3.1]nonan-3-yl)-6-chloro-2-((2S,6S)-2,6-dimethylpiperazin-1-yl)benzoxazole-4-carboxamide Hydrochloride] is 1.9-fold lower in Ki: 12.6 nM for the first, 6.6 nM for the second. The second binds more tightly here.

First: C[C@H]1CNC[C@H](C)N1c1nc2c(C(=O)NC3CC4CCCC(C3)N4C)ccc(F)c2o1 (stereo partly drawn) [Example 107, Endo-N-(9-Methyl-9-azabicyclo[3.3.1]nonan-3-yl)-2-((2S,6S)-2,6-dimethylpiperazine-1-yl)-7-fluorobenzoxazole-4-carboxamide hydrochloride]
Second: C[C@H]1CNC[C@H](C)N1c1nc2c(C(=O)NC3CN4CCC3CC4)ccc(F)c2o1 (stereo partly drawn) [Example 118, (S)—N-(Quinulidin-8-yl)-2-((2S,6S)-2,6-dimethylpiperazine-1-yl)-7-fluorobenzoxazole-4-carboxamide hydrochloride]
The Ki of the first is 1.9-fold lower: 14.2 nM for the first, 26.8 nM for the second.

First: CN(C)c1nc2c(C(=O)N[C@@H]3CN4CCC3CC4)cc(Cl)cc2o1 [Example 108, (S)—N-(quinuclidine-8-yl)-6-chloro-2-(dimethylamino)benzoxazole-4-carboxamide Hydrochloride]
Second: CCN(CC)c1nc2c(C(=O)N[C@@H]3CN4CCC3CC4)cccc2o1 [Example 115, (S)—N-(quinuclidine-8-yl)-2-diethylaminobenzoxazole-4-carboxamide Hydrochloride]
The Ki of the first is 3-fold higher: 14.4 nM for the first, 4.8 nM for the second. The second binds more tightly here.

`O=C(NC1CN2CCC1CC2)c1cccc2oc(NCC(F)(F)F)nc12` (centres unmarked) [Example 109, Hydrochloride] and `Nc1nc2c(C(=O)NC3CN4CCC3CC4)ccc(F)c2o1` [Example 112, (S)—N-(quinulidin-8-yl)-2-amino-7-fluorobenzoxazole-4-carboxamide Hydrochloride] are within 1.5-fold of each other in Ki: 47.9 nM for the first, 33.3 nM for the second.

`CN1[C@@H]2CCC[C@H]1C[C@@H](NC(=O)c1cc(Cl)cc3oc(N)nc13)C2` [Example 111, Endo-2-amino-6-chloro-N-(9-Methyl-9-azabicyclo[3.3.1]nonan-3-yl)benzoxazole-4-carboxamide Hydrochloride] and `C[C@H]1CN(C(=O)c2ccccc2)C[C@H](C)N1c1nc2c(C(=O)NC3CC4CCCC(C3)N4C)cccc2o1` (stereo partly drawn) [Example 117, Endo-N-(9-methyl-9-azabicyclo[3.3.1]nonan-3-yl)-2-((2S,6S)-4-benzoyl-2,6-dimethylpiperazin-1-yl)benzoxazole-4-carboxamide Hydrochloride] are within 1.5-fold of each other in Ki: 2 nM for the first, 2.3 nM for the second.
